Tests used:
human TLR7 = target: T1, human TLR7 (Homo sapiens, UniProt Q9NYK1); test: Human TLR7 agonist activity assay (HEK-Blue TLR7 SEAP reporter); format: cell-based; conditions: HEK-Blue TLR7 cells, 18 h treatment, average where assay performed multiple times, read-out: hTLR7 Agonism EC50
T1 construct: host or cells: HEK-Blue TLR7 cells (engineered human embryonic kidney cells)
T1 sequence (Q9NYK1 27-1049): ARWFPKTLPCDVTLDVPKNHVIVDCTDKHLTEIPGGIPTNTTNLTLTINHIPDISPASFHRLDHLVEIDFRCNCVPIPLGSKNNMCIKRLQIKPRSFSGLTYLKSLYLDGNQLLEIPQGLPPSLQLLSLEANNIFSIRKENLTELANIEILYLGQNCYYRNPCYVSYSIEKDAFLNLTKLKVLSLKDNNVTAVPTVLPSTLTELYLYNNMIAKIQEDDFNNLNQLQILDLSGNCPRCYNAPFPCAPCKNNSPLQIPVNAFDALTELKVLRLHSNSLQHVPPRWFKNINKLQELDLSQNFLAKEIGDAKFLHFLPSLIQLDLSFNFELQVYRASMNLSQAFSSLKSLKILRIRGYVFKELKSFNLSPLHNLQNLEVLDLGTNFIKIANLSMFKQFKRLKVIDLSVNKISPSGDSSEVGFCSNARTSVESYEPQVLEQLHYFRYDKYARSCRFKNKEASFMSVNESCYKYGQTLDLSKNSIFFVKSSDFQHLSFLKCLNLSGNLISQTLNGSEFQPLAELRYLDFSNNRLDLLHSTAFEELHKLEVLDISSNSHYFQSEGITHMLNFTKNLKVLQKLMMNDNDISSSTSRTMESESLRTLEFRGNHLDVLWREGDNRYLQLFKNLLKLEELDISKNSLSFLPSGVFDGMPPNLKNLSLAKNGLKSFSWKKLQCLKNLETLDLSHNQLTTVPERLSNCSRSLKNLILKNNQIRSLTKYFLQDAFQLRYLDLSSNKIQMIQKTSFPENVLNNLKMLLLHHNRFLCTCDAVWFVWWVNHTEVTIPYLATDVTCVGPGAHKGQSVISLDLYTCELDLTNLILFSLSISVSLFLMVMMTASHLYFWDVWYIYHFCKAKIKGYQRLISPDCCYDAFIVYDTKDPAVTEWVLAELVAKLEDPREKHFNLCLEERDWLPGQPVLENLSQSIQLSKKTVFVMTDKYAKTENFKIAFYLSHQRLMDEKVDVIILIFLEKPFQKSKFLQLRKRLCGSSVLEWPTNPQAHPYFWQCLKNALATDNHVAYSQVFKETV
In short: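 HEK-Blue TLR7 cells (15,000/well) treated with compound for 18 h at 37 °C, 5% CO2. Secreted SEAP measured with Quanti-Blue, 30 min, OD 620 nm. EC50 taken as concentration giving half-maximal response between baseline and maximum.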

CD69 = test: Induction of CD69 in human whole blood; format: cell-based; conditions: Homo sapiens, 17 h, 100% set to 1 uM of resiquimod, average where assay performed multiple times, read-out: hWB CD69 EC50
Description: The induction of Type I interferon (IFN) MX-1 genes and the B-cell activation marker CD69 are downstream events that occur upon activation of the TLR7 pathway. The following is a human whole blood assay that measures their induction in response to a TLR7 agonist.
Heparinized human whole blood was harvested from human subjects and treated with test TLR7 agonist compounds at 1 mM. The blood was diluted with RPMI 1640 media and Echo was used to predot 10 nL per well giving a final concentration of 1 uM (10 nL in 10 uL of blood). After mixing on a shaker for 30 sec, the plates were covered and placed in a 37° C. chamber for o/n=17 hrs. Fixing/lysis buffer was prepared (5×->1× in H2O, warm at 37° C.; Cat #BD 558049) and kept the perm buffer (on ice) for later use.
For surface markers staining (CD69): prepared surface Abs: 0.045 ul hCD14-FITC (ThermoFisher Cat #MHCD1401)+0.6 ul hCD19-ef450 (ThermoFisher Cat #48-0198-42)+1.5 ul hCD69-PE (cat #BD555531)+0.855 ul FACS buffer. Added 3 ul/well, spin1000 rpm for 1 min and mixed on shaker for 30 sec, put on ice for 30 mins. Stop stimulation after 30 minutes with 70 uL of prewarmed 1× fix/lysis buffer and use Feliex mate to resuspend (15 times, change tips for each plate) and incubate at 37 C for 10 minutes.
Centrifuge at 2000 rpm for 5 minutes aspirate with HCS plate washer, mix on shaker for 30 sec and then wash with 70 uL in dPBS and pelleted 2×s (2000 rpm for 5 min) and 50 ul wash in FACS buffer pelleted 1×s (2000 rpm for 5 min). Mix on shaker for 30 sec. For Intracellular markers staining (MX-1): Add 50 ul of BD Perm buffer III and mix on shaker for 30 sec. Incubate on ice for 30 minutes (in the dark). Wash with 50 uL of FACS buffer 2×(spin @2300 rpm×5 min after perm) followed by mixing on shaker for 30 sec. Resuspended in 20 ul of FACS buffer containing MX1 antibody ( )(4812)-Alexa 647: Novus Biologicals #NBP2-43704AF647) 20 ul FACS bf+0.8 ul hIgG+0.04 ul MX-1. Spin 1000 rpm for 1 min, mix on shaker for 30 se and the samples were incubated at RT in the dark for 45 minutes followed by washing 2×FACS buffer (spin @2300 rpm×5 min after perm). Resuspend 20 ul (35 uL total per well) of FACS buffer and cover with foil and place in 4° C. to read the following day. Plates were read on iQuePlus. The results were loaded into toolset and IC50 curves are generated in curve master. The y-axis 100% is set to 1 uM of resiquimod.

CCC[C@@H](CCO)Nc1nc(N)nc2cnn(Cc3ncc(C4CCN(C(C)C)CC4)cc3OC)c12 [Compound 126, (3S)-3-{[5-amino-1-({3-methoxy-5-[1-(propan-2-yl)piperidin-4-yl]pyridin-2-yl}methyl)-1H-pyrazolo[4,3-d]pyrimidin-7-yl]amino}hexan-1-ol]
EC50 (human TLR7): 15.5 nM
EC50 (CD69): 2 nM

CCC[C@@H](CCO)Nc1nc(N)nc2cnn(Cc3ncc(C4CCN(C5CCOCC5)CC4)cc3OC)c12 [Compound 127, (3S)-3-{[5-amino-1-({3-methoxy-5-[1-(oxan-4-yl)piperidin-4-yl]pyridin-2-yl}methyl)-1H-pyrazolo[4,3-d]pyrimidin-7-yl]amino}hexan-1-ol]
EC50 (human TLR7): 12.8 nM
EC50 (CD69): 2.7 nM

CCCCNc1nc(N)nc2cnn(Cc3ncc(C4CCN(C(=O)CN(C)C)CC4)cc3OC)c12 [Compound 128, 1-[4-(6-{[5-amino-7-(butylamino)-1H-pyrazolo[4,3-d]pyrimidin-1-yl]methyl}-5-methoxypyridin-3-yl)piperidin-1-yl]-2-(dimethylamino)ethan-1-one]
EC50 (human TLR7): 48.4 nM
EC50 (CD69): 3.5 nM

CCCCNc1nc(N)nc2cnn(Cc3ncc(C4CCN(C5CCCC5)CC4)cc3OC)c12 [Compound 129, N7-butyl-1-{[5-(1-cyclopentylpiperidin-4-yl)-3-methoxypyridin-2-yl]methyl}-1H-pyrazolo[4,3-d]pyrimidine-5,7-diamine]
EC50 (human TLR7): 27.3 nM
EC50 (CD69): 7.6 nM

CCCCNc1nc(N)nc2c(Cl)nn(Cc3ncc(C4CCN(C5CCCC5)CC4)cc3OC)c12 [Compound 131, N7-butyl-3-chloro-1-{[5-(1-cyclopentylpiperidin-4-yl)-3-methoxypyridin-2-yl]methyl}-1H-pyrazolo[4,3-d]pyrimidine-5,7-diamine]
EC50 (human TLR7): 595 nM
EC50 (CD69): 972 nM

CCCCNc1nc(N)nc2cnn(Cc3ncc(C4CCN(C=O)CC4)cc3OC)c12 [Compound 132, 4-(6-{[5-amino-7-(butylamino)-1H-pyrazolo[4,3-d]pyrimidin-1-yl]methyl}-5-methoxypyridin-3-yl)piperidine-1-carbaldehyde]
EC50 (human TLR7): 180 nM
EC50 (CD69): 195 nM

CCC[C@@H](CCO)Nc1nc(N)nc2cnn(Cc3ncc(C4CCN(C5COC5)CC4)cc3OC)c12 [Compound 133, (3S)-3-{[5-amino-1-({3-methoxy-5-[1-(oxetan-3-yl)piperidin-4-yl]pyridin-2-yl}methyl)-1H-pyrazolo[4,3-d]pyrimidin-7-yl]amino}hexan-1-ol]
EC50 (human TLR7): 7.6 nM
EC50 (CD69): 5.4 nM

CCC[C@@H](CCO)Nc1nc(N)nc2cnn(Cc3ncc(C4CCN(C)CC4)cc3OC)c12 [Compound 134, (3S)-3-[(5-amino-1-{[3-methoxy-5-(1-methylpiperidin-4-yl)pyridin-2-yl]methyl}-1H-pyrazolo[4,3-d]pyrimidin-7-yl)amino]hexan-1-ol]
EC50 (human TLR7): 14.1 nM
EC50 (CD69): 2.6 nM

CCC[C@@H](CCO)Nc1nc(N)nc2cnn(Cc3ncc(C4CCN(C(=O)CN(C)C)CC4)cc3OC)c12 [Compound 135, 1-(4-{6-[(5-amino-7-{[(3S)-1-hydroxyhexan-3-yl]amino}-1H-pyrazolo[4,3-d]pyrimidin-1-yl)methyl]-5-methoxypyridin-3-yl}piperidin-1-yl)-2-(dimethylamino)ethan-1-one]
EC50 (human TLR7): 41.4 nM
EC50 (CD69): 11.7 nM

CCC[C@@H](CCO)Nc1nc(N)nc2cnn(Cc3ncc(C4CCN(C(=O)CCN(C)C)CC4)cc3OC)c12 [Compound 136, 1-(4-{6-[(5-amino-7-{[(3S)-1-hydroxyhexan-3-yl]amino}-1H-pyrazolo[4,3-d]pyrimidin-1-yl)methyl]-5-methoxypyridin-3-yl}piperidin-1-yl)-3-(dimethylamino)propan-1-one]
EC50 (human TLR7): 197 nM
EC50 (CD69): 42.3 nM

COc1cc(C2CCNCC2)cnc1Cn1ncc2nc(N)nc(NCc3cc(C)on3)c21 [Compound 137, 1-{[3-methoxy-5-(piperidin-4-yl)pyridin-2-yl]methyl}-N7-[(5-methyl-1,2-oxazol-3-yl)methyl]-1H-pyrazolo[4,3-d]pyrimidine-5,7-diamine]
EC50 (human TLR7): 357 nM
EC50 (CD69): 118 nM

CCC[C@@H](CCO)Nc1nc(N)nc2cnn(Cc3ncc(C4CCN(C5CN(C)C5)CC4)cc3OC)c12 [Compound 138, (3S)-3-{[5-amino-1-({3-methoxy-5-[1-(1-methylazetidin-3-yl)piperidin-4-yl]pyridin-2-yl}methyl)-1H-pyrazolo[4,3-d]pyrimidin-7-yl]amino}hexan-1-ol]
EC50 (human TLR7): 26.7 nM
EC50 (CD69): 5.6 nM

CCC[C@@H](CCO)Nc1nc(N)nc2cnn(Cc3ncc(C4CCN(C5CN(C(C)C)C5)CC4)cc3OC)c12 [Compound 139, (3S)-3-({5-amino-1-[(3-methoxy-5-{1-[1-(propan-2-yl)azetidin-3-yl]piperidin-4-yl}pyridin-2-yl)methyl]-1H-pyrazolo[4,3-d]pyrimidin-7-yl}amino)hexan-1-ol]
EC50 (human TLR7): 8.1 nM
EC50 (CD69): 1.1 nM

COc1cc(C2CCN(C(=O)CCN(C)C)CC2)cnc1Cn1ncc2nc(N)nc(NCc3cc(C)on3)c21 [Compound 140, 1-(4-{6-[(5-amino-7-{[(5-methyl-1,2-oxazol-3-yl)methyl]amino}-1H-pyrazolo[4,3-d]pyrimidin-1-yl)methyl]-5-methoxypyridin-3-yl}piperidin-1-yl)-3-(dimethylamino)propan-1-one]
EC50 (human TLR7): 530 nM
EC50 (CD69): 128 nM

COc1cc(C2CCN(C3CCOCC3)CC2)cnc1Cn1ncc2nc(N)nc(NCc3cc(C)on3)c21 [Compound 141, 1-({3-methoxy-5-[1-(oxan-4-yl)piperidin-4-yl]pyridin-2-yl}methyl)-N7-[(5-methyl-1,2-oxazol-3-yl)methyl]-1H-pyrazolo[4,3-d]pyrimidine-5,7-diamine]
EC50 (human TLR7): 73.2 nM
EC50 (CD69): 16.2 nM

COc1cc(C2CCN(C(C)C)CC2)cnc1Cn1ncc2nc(N)nc(NCc3cc(C)on3)c21 [Compound 142, 1-({3-methoxy-5-[1-(propan-2-yl)piperidin-4-yl]pyridin-2-yl}methyl)-N7-[(5-methyl-1,2-oxazol-3-yl)methyl]-1H-pyrazolo[4,3-d]pyrimidine-5,7-diamine]
EC50 (human TLR7): 43.3 nM
EC50 (CD69): 5.6 nM

COc1cc(C2CCN(C3CNC3)CC2)cnc1Cn1ncc2nc(N)nc(NCc3cc(C)on3)c21 [Compound 143, 1-({5-[1-(azetidin-3-yl)piperidin-4-yl]-3-methoxypyridin-2-yl}methyl)-N7-[(5-methyl-1,2-oxazol-3-yl)methyl]-1H-pyrazolo[4,3-d]pyrimidine-5,7-diamine]
EC50 (human TLR7): 295 nM
EC50 (CD69): 265 nM

— patent publication US20230144824A1, “1H-PYRAZOLO[4,3-d]PYRIMIDINE COMPOUNDS AS TOLL-LIKE RECEPTOR 7 (TLR7) AGONISTS” (BRISTOL-MYERS SQUIBB COMPANY, priority 2020, published 2023)
